Here are results for ten compounds from patent publication EP4660190A1, “PHARMACEUTICALLY ACCEPTABLE SALT OF COMPOUND AND PREPARATION METHOD THEREFOR” (Jiangsu Chia Tai Fenghai Pharmaceutical Co., Ltd., priority 2023, dated 2024).

For data set [1], the system named is rat spinal cord injury model. The experiment in a line: Rat spinal cord injury model, BBB locomotor scores. In kind it is in vivo, Male SD rats. To be noted: 180 mg/kg single iv, mean±SD. The text has this:
The scoring method is as follows: [table]

In data set [2] the test system is rat spinal cord injury model. The experiment in a line: Rat spinal cord injury model, Neurofilament 200 (NF200) expression. In kind it is in vivo, Male SD rats. To be noted: 180 mg/kg single iv, mean±SD, n=6.
For data set [3], the system named is rat spinal cord injury model. Put plainly: Rat spinal cord injury model, pathological changes. To be noted: 180 mg/kg single iv; spinal cord histopathology.
For data set [4], the system named is TDP-43-A315T transgenic mice of ALS model. The experiment in a line: TDP-43-A315T ALS mice, rotarod test. The format is in vivo. To be noted: 25 mg/kg p.o., Mean±SEM. A general note: In the rotarod test animals must keep their balance on a rotating rod.
Data set [5] has the same test system. Put plainly: TDP-43-A315T ALS mice, muscle tone test. In kind it is in vivo. To be noted: 25 mg/kg p.o., Mean±SEM.
Data set [6] concerns MPTP-induced Parkinson's disease model mice. Put plainly: MPTP-induced mouse Parkinson's disease model, striatal dopamine (DOPA) detection. The format is in vivo, C57 mice. To be noted: striatum; positive control 20 mg/kg daily, four weeks; mean ± SD.
For data set [7] the test system is unchanged. The experiment in a line: MPTP-induced mouse Parkinson's disease model, TH-positive fiber content in the striatum. The format is in vivo, C57 mice. To be noted: positive control 20 mg/kg daily, four weeks, mean ± SD.
Data set [8] has the same test system. The experiment in a line: MPTP-induced mouse Parkinson's disease model, pole test. The format is in vivo, C57 mice. To be noted: mean ± SD.
For data set [9] the test system is unchanged. The experiment in a line: MPTP-induced mouse Parkinson's disease model, grip strength test. To be noted: positive control 20 mg/kg group; Before Modeling; mean ± SD.
The test system is the same in data set [10]. The experiment in a line: MPTP-induced mouse Parkinson's disease model, TH-positive cell counts in the substantia nigra pars compacta. In kind it is in vivo, C57 mice. To be noted: positive control 20 mg/kg daily, four weeks, mean ± SD.

Like-named read-outs stand apart in the source and are kept apart here.

Take `C[C@H]1C[C@@H]2[C@H]([C@@H](O)C[C@@]3(C)[C@H]2CC[C@]3(O)C(=O)COC(=O)CCC(=O)O)[C@@]2(C)C=CC(=O)C=C12` [methylprednisolone succinate]: the “BBB Locomotor Scores” value was 0.1± 0.3 in [1] (3 d after dosing); 2.8± 1.9 in [1] (7 d after dosing); 5.7±4.5 in data set [1] (14 d after dosing); 7.9±3.4 in [1] (28 d after dosing); 0± 0 in data set [1] (Before dosing). Besides, the “Positive Count (number per field of view)” value in data set [2] is on record as 22.2± 6.3 number per field of view. Besides, the “cases showing a reduction in lesions” value in [3] is 3 out of 6.

For the compound “(Z)-3-(1-hydroxybutylidene)benzofuran-2-one piperazine salt [Example 7]”, the Appearance result is on record as “Light yellow solid” (0 h); “Light yellow solid” (High Humidity 75%, 10 d); “Light yellow solid” (High Humidity 92.5%, 10 d); “Light yellow solid” (High temperature 40°C, 10 d); “Light yellow solid” (High temperature 60°C, 10 d); “Light yellow solid” (Light, 10 d). Also, the Purity is on record as 99.59% (0 h); 99.66% (High Humidity 75%, 10 d); 99.54% (High Humidity 92.5%, 10 d); 99.67% (High temperature 40°C, 10 d); 99.72% (High temperature 60°C, 10 d); 99.43% (Light, 10 d).

For the compound “(Z)-3-(1-hydroxybutenyl)benzofuran-2-one meglumine salt [Example 9]”, the Appearance entry is listed as “White solid” (0 h); “White solid” (High Humidity 75%, 10 d); “Yellow oily liquid” (High Humidity 92.5%, 10 d); “White solid” (High temperature 40°C, 10 d); “White solid” (High temperature 60°C, 10 d); “White solid” (Light, 10 d). This compound gave a Purity (0 h) of 99.53%; a Purity (High Humidity 75%, 10 d) of 99.01%; a Purity (High Humidity 92.5%, 10 d) of 98.62%; a Purity (High temperature 40°C, 10 d) of 99.45%; a Purity (High temperature 60°C, 10 d) of 98.04%; a Purity (Light, 10 d) of 99.60%.

Regarding `CC/C=C(\O)C1C(=O)Oc2ccccc21.[Ca]` (centres unmarked) [Example 6, (Z)-3-(1-hydroxybutenyl)benzofuran-2-one calcium salt], the Appearance entry by setting is: (0 h) “White solid”; (High Humidity 75%, 10 d) “White solid”; (High Humidity 92.5%, 10 d) “White solid”; (High temperature 40°C, 10 d) “White solid”; (High temperature 60°C, 10 d) “White solid”; (Light, 10 d) “White solid”. Further, the Purity by setting is: (0 h) 99.42%; (High Humidity 75%, 10 d) 99.56%; (High Humidity 92.5%, 10 d) 99.44%; (High temperature 40°C, 10 d) 99.58%; (High temperature 60°C, 10 d) 99.68%; (Light, 10 d) 99.43%.

In the case of `Nc1nc2ccc(OC(F)(F)F)cc2s1` [Riluzole, reference compound], the “Rotarod performance” value in [4] (female mice, Dosing Schedule (weeks) 2) came to 269.8 ± 5.164 s; in data set [4] (female mice, Dosing Schedule (weeks) 4), 258.8 ± 15.65 s; in [4] (female mice, Dosing Schedule (weeks) 6), 275.3 ± 9.266 s; in data set [4] (female mice, Dosing Schedule (weeks) 8), 272.3 ± 10.56 s; in data set [4] (female mice, Dosing Schedule (weeks) 10) it was 238.4 ± 16.32 s; in [4] (female mice, Dosing Schedule (weeks) 12), 252.3 ± 16.24 s. Moreover, the “Rotarod performance” value in [4] (female mice, Dosing Schedule (weeks) 14) is 270.6 ± 12.70 s; in data set [4] (female mice, Dosing Schedule (weeks) 16) it was 255.9 ± 17.39 s; in data set [4] (male mice, Dosing Schedule (weeks) 6), 250.8 ± 12.71 s; in data set [4] (male mice, Dosing Schedule (weeks) 8) it was 236.4 ± 16.14 s; in data set [4] (male mice, Dosing Schedule (weeks) 10), 234.0 ± 10.64 s; in data set [4] (male mice, Dosing Schedule (weeks) 11), 215.6 ± 31.32 s. Further, the “Rotarod performance” value in data set [4] (male mice, Dosing Schedule (weeks) 12) stood at 202.4 ± 41.22 s; in data set [4] (male mice, Dosing Schedule (weeks) 13) it was 135.32 ± 76.92 s. For the same compound, the “Muscle Tone” value in data set [5] (female mice, animal age 6 weeks) came out at 145.2 ± 5.444 g; in [5] (female mice, animal age 8 weeks) it was 177.8 ± 9.836 g; in data set [5] (female mice, animal age 10 weeks) it was 133.6 ± 12.04 g; in [5] (female mice, animal age 12 weeks) it was 161.5 ± 3.666 g; in [5] (female mice, animal age 13 weeks), 146.4 ± 6.928 g; in data set [5] (female mice, animal age 14 weeks), 143.1 ± 9.165 g. In addition, the “Muscle Tone” value in data set [5] (female mice, animal age 16 weeks) was found to be 149.0 ± 6.827 g; in [5] (male mice, animal age 6 weeks) it was 144.0 ± 10.127 g; in [5] (male mice, animal age 8 weeks), 152.4 ± 10.35 g; in [5] (male mice, animal age 10 weeks) it was 150.5 ± 14.46 g; in data set [5] (male mice, animal age 12 weeks), 145.4 ± 5.551 g; in data set [5] (male mice, animal age 13 weeks), 147.8 ± 1.650 g. For the same compound, the “Muscle Tone” value in [5] (male mice, animal age 14 weeks) came out at 129.2 ± 1.250 g.

Take “(Z)-3-(1-hydroxybutenyl)benzofuran-2-one sodium salt [Example 2]”: the “Impurities RRT1.41” value is, setting by setting: (0 h) 0.10; (High Humidity 75%, 10 d) 0.12; (High temperature 60°C, 10 d) 0.14; (Light, 10 d) 0.07. Further, the “Impurities RRT1.47” value is, setting by setting: (0 h) 0.11; (High Humidity 75%, 10 d) 0.10; (High temperature 60°C, 10 d) 0.09; (Light, 10 d) 0.09. Further, the “Impurities Total impurities” value is, setting by setting: (0 h) 0.21; (High Humidity 75%, 10 d) 0.22; (High temperature 60°C, 10 d) 0.23; (Light, 10 d) 0.16.

Turning to `CCC/C(O)=C1/C(=O)Oc2ccccc21.[Mg]` [Example 5, (Z)-3-(1-hydroxybutylidene)benzofuran-2-one magnesium salt], the Appearance result is, setting by setting: (0 h) “White solid”; (High Humidity 75%, 10 d) “White solid”; (High Humidity 92.5%, 10 d) “White solid”; (High temperature 40°C, 10 d) “White solid”; (High temperature 60°C, 10 d) “White solid”; (Light, 10 d) “White solid”. Besides, the Purity (0 h) stood at 99.67%; the Purity (High Humidity 75%, 10 d) amounted to 99.83%; the Purity (High Humidity 92.5%, 10 d) worked out at 99.79%; the Purity (High temperature 40°C, 10 d) is given as 99.82%; the Purity (High temperature 60°C, 10 d) stood at 99.58%; the Purity (Light, 10 d) was determined as 99.72%.

For the compound `N[C@@H](Cc1ccc(O)c(O)c1)C(=O)O` [Levodopa, reference compound], the DOPA in data set [6] is on record as 1156.72±375.72^& ng/g. Moreover, the “TH-Positive Fiber Content” value in data set [7] is recorded as 536968.78±68050.46^&; in data set [7] (listed as levodopa) it was 536,968.78±68,050.46. The “Pole test results” value amounted to 8.76 ± 1.57 s in data set [8] (positive control 20 mg/kg daily, four weeks, Study Endpoint) and 9.40 ± 1.62 s in data set [8] (positive control 20 mg/kg group, Before Modeling). For the same compound, in [9], the “Grip Strength Test” value was 272.61 ± 9.01 g. Further, the “TH-Positive Cell counts” value in data set [10] is on record as 31.50±4.14^&.

`CCC/C(O)=C1/C(=O)Oc2ccccc21.NCCO` [Example 8]: the Appearance result by setting is: (0 h) “White solid”; (High Humidity 75%, 10 d) “White solid”; (High Humidity 92.5%, 10 d) “White solid”; (High temperature 40°C, 10 d) “White solid”; (High temperature 60°C, 10 d) “White solid”; (Light, 10 d) “White solid”. In addition, the Purity stood at 99.19% (0 h); 99.71% (High Humidity 75%, 10 d); 99.79% (High Humidity 92.5%, 10 d); 99.75% (High temperature 40°C, 10 d); 99.75% (High temperature 60°C, 10 d); 99.78% (Light, 10 d).

Consider “(Z)-3-(1-hydroxybutenyl)benzofuran-2-one potassium salt [Example 4]”, for which the Appearance entry is on record as “White solid” (0 h); “White solid” (High Humidity 75%, 10 d); “White solid” (High Humidity 92.5%, 10 d); “White solid” (High temperature 40°C, 10 d); “White solid” (High temperature 60°C, 10 d); “White solid” (Light, 10 d). In addition, the Purity (0 h) is 99.41%; the Purity (High Humidity 75%, 10 d) amounted to 99.34%; the Purity (High Humidity 92.5%, 10 d) was 99.47%; the Purity (High temperature 40°C, 10 d) was found to be 99.66%; the Purity (High temperature 60°C, 10 d) came out at 99.58%; the Purity (Light, 10 d) came to 99.41%.
